# Measured values published in ChEMBL document CHEMBL5370544, “Design, synthesis, and biological evaluation of 1-styrenyl isoquinoline derivatives for anti-hepatocellular carcinoma activity and effect on mitochondria” (Eur J Med Chem, 2023).
# Calls of active or inactive are those of the source. The calls are words filed in the database; no cut-off is given here.
# Key:
# Huh-7 [1] = assay: Antiproliferative activity against human Huh-7 cells assessed as inhibition of cell growth upto 2 uM by MTT assay; type: functional, cell-based; details: time 72.0 hrs, TDE = time-dependent effect
# SK-HEP1 [2] = assay: Antiproliferative activity against human SK-HEP1 cells assessed as inhibition of cell growth upto 2 uM by MTT assay; type: functional, cell-based; details: time 72.0 hrs, TDE = time-dependent effect
# SK-HEP1 [3] = assay: Inhibition of colony formation in human SK-HEP1 cells assessed as reduction in number of cell colonies at 1.25 to 5 uM measured after 10 and 14 days by crystal violet staining based light microscopic analysis; type: functional; details: dose 1.25-5 µM, time 14.0 day
# Huh-7 [4] = assay: Antiproliferative activity against human Huh-7 cells assessed as reduction in ratio of EdU-positive cells measured after 24 hrs by EdU incorporation assay; type: functional, cell-based; details: dose 0.55-2.2 µM
# Huh-7 [5] = assay: Induction of cell cycle arrest in human Huh-7 cells assessed as increase in accumulation of cells at G2/M phase incubated for 24 hrs by propidium iodide staining based flow cytometry analysis; type: functional; details: dose 0.9-8.1 µM
# SK-HEP1 [6] = assay: Induction of cell cycle arrest in human SK-HEP1 cells assessed as decrease in accumulation of cells at G0/G1 phase incubated for 24 hrs by propidium iodide staining based flow cytometry analysis; type: functional; details: dose 1.5-13.5 µM
# Huh-7 [7] = assay: Induction of cell cycle arrest in human Huh-7 cells assessed as decrease in CDK1 expression incubated for 48 hrs by Western blotting analysis; type: functional, cell-based; details: dose 0.9-8.1 µM
# Huh-7 [8] = assay: Induction of cell cycle arrest in human Huh-7 cells assessed as decrease in cyclin B1 expression incubated for 48 hrs by Western blotting analysis; type: functional, cell-based; details: dose 0.9-8.1 µM
# SK-HEP1 [9] = assay: Induction of cell cycle arrest in human SK-HEP1 cells assessed as decrease in CDK1 expression incubated for 48 hrs by Western blotting analysis; type: functional, cell-based; details: dose 1.5-13.5 µM
# SK-HEP1 [10] = assay: Induction of cell cycle arrest in human SK-HEP1 cells assessed as decrease in cyclin A expression incubated for 48 hrs by Western blotting analysis; type: functional, cell-based; details: dose 1.5-13.5 µM
# SK-HEP1 [11] = assay: Inhibition of cell migration in human SK-HEP1 cells at 1.25 to 5 uM incubated for 24 hrs by crystal violet staining based transwell migration assay; type: functional; details: dose 1.25-5 µM
# SK-HEP1 [12] = assay: Antiinvasive activity in human SK-HEP1 cells assessed as reduction in number of invasive cells at 1.25 to 5 uM incubated for 24 hrs by transwell invasion assay; type: functional, cell-based; details: dose 1.25-5 µM
# Huh-7 [13] = assay: Induction of apoptosis in human Huh-7 cells assessed as cell shrinkage at 0.9 to 8.1 uM incubated for 24 hrs by giemsa staining based micrscopic analysis; type: functional; details: dose 0.9-8.1 µM
# Huh-7 [14] = assay: Induction of apoptosis in human Huh-7 cells assessed as chromatin condensation at 0.9 to 8.1 uM incubated for 24 hrs by giemsa staining based micrscopic analysis; type: functional, cell-based; details: dose 0.9-8.1 µM
# Huh-7 [15] = assay: Induction of apoptosis in human Huh-7 cells assessed as genomic DNA fragmentation at 0.9 to 8.1 uM incubated for 24 hrs by giemsa staining based micrscopic analysis; type: functional, cell-based; details: dose 0.9-8.1 µM
# Huh-7 [16] = assay: Induction of apoptosis in human Huh-7 cells assessed as formation of apoptotic bodies at 0.9 to 8.1 uM incubated for 24 hrs by giemsa staining based micrscopic analysis; type: functional, cell-based; details: dose 0.9-8.1 µM
# SK-HEP1 [17] = assay: Induction of apoptosis in human SK-HEP1 cells assessed as genomic DNA fragmentation at 1.5 to 13.5 uM incubated for 24 hrs by giemsa staining based micrscopic analysis; type: functional, cell-based; details: dose 1.5-13.5 µM
# SK-HEP1 [18] = assay: Induction of apoptosis in human SK-HEP1 cells assessed as increase in proportion of early apoptosis at 1.5 to 13.5 uM incubated for 24 hrs by Annexin V-AbFluor 488/propidium iodide staining based flow cytometry analysis; type: functional, cell-based; details: dose 1.5-13.5 µM
# SK-HEP1 [19] = assay: Induction of mitochondrial membrane potential depolarization in human SK-HEP1 cells incubated for 24 hrs by TMRE staining based flow cytometry analysis; type: functional, cell-based; details: dose 1.5-13.5 µM
# SK-HEP1 [20] = assay: Induction of ROS production in human SK-HEP1 cells assessed as increase in intracellular ROS level at 1.5 to 13.5 uM incubated for 24 hrs by DCFH-DA staining based fluorescence assay; type: functional, cell-based; details: dose 1.5-13.5 µM
# Huh-7 [21] = assay: Induction of apoptosis in human Huh-7 cells assessed as inhibition of Bcl-2 expression incubated for 48 hrs by Western blotting analysis; type: functional, cell-based; details: dose 0.9-8.1 µM
# Huh-7 [22] = assay: Induction of apoptosis in human Huh-7 cells assessed as inhibition of caspase-3 expression incubated for 48 hrs by Western blotting analysis; type: functional, cell-based; details: dose 0.9-8.1 µM
# Huh-7 [23] = assay: Induction of apoptosis in human Huh-7 cells assessed as increase in Bax expression at 0.9 to 8.1 uM incubated for 48 hrs by Western blotting analysis; type: functional, cell-based; details: dose 0.9-8.1 µM
# Huh-7 [24] = assay: Induction of apoptosis in human Huh-7 cells assessed as increase in cytochrome-C expression at 0.9 to 8.1 uM incubated for 48 hrs by Western blotting analysis; type: functional, cell-based; details: dose 0.9-8.1 µM
# SK-HEP1 [25] = assay: Induction of apoptosis in human SK-HEP1 cells assessed as inhibition of Bcl-2 expression incubated for 48 hrs by Western blotting analysis; type: functional, cell-based; details: dose 1.5-13.5 µM
# SK-HEP1 [26] = assay: Induction of apoptosis in human SK-HEP1 cells assessed as inhibition of caspase-9 expression incubated for 48 hrs by Western blotting analysis; type: functional, cell-based; details: dose 1.5-13.5 µM
# SK-HEP1 [27] = assay: Induction of apoptosis in human SK-HEP1 cells assessed as increase in cleaved caspase-9 expression at 1.5 to 13.5 uM incubated for 48 hrs by Western blotting analysis; type: functional, cell-based; details: dose 1.5-13.5 µM
# Huh-7 [28] = assay: Inhibition of PI3K signalling pathway in human Huh-7 cells assessed as inhibition of PI3K phosphorylation at 0.9 to 8.1 uM measured after 48 hrs by Western blotting analysis; type: cell-based; details: dose 0.9-8.1 µM
# [29] = molecular target: Serine/threonine-protein kinase mTOR (Homo sapiens) (UniProt P42345); assay: Inhibition of mTOR signalling pathway in human Huh-7 cells assessed as inhibition of mTOR phosphorylation at 0.9 to 8.1 uM measured after 48 hrs by Western blotting analysis; type: cell-based; details: dose 0.9-8.1 µM
# Huh-7 [30] = assay: Antitumor activity against human Huh-7 cells xenografted in BALB/c mouse assessed as tumor growth inhibition at 15 mg/kg, ip qd measured after 14 days; type: functional; details: Huh-7, 336 h, time 14 day, read-out: TGI
# Huh-7 [31] = assay: Antitumor activity against human Huh-7 cells xenografted in BALB/c mouse assessed as reduction in tumor growth at 15 to 30 mg/kg, ip qd measured after 5 days; type: functional, organism-based; details: dose 15-30 mg/kg, time 5.0 day
# Huh-7 [32] = assay: Antitumor activity against human Huh-7 cells xenografted in BALB/c mouse assessed as reduction in tumor weight at 15 to 30 mg/kg, ip qd; type: functional, organism-based; details: dose 15-30 mg/kg, time 14.0 day, TDE = time-dependent effect
# Huh-7 [33] = assay: Antitumor activity against human Huh-7 cells xenografted in BALB/c mouse assessed as reduction in tumor volume at 15 to 30 mg/kg, ip qd; type: functional, organism-based; details: dose 15-30 mg/kg, time 14.0 day, TDE = time-dependent effect
# Huh-7 [34] = assay: Antitumor activity against human Huh-7 cells xenografted in ip dosed BALB/c mouse assessed as reduction in tumor volume measured after 14 days; type: functional, organism-based; details: dose 15-30 mg/kg, time 14.0 day
# [35] = Toxicity in BALB/c mouse xenografted with human Huh-7 cells assessed as change in body weight at 15 to 30 mg/kg, ip qd measured after 14 days; type: organism-based; details: in vivo, 336 h, dose 15-30 mg/kg, time 14 day
# [36] = Acute toxicity in BALB/c mouse assessed as mouse survival at 650 mg/kg, ip measured after 14 days; type: organism-based; details: in vivo, 336 h, time 14 day
smiles,measurement,setting,value
CC(=O)Oc1ccccc1/C=C/c1nccc2ccccc12,Activity,Huh-7 [1],Tde
same,Activity,SK-HEP1 [2],Tde
same,inhibition,SK-HEP1 [3],Active
same,Activity,Huh-7 [4],Dose-Dependent Effect
same,Activity,Huh-7 [5],Dose-Dependent Effect
same,Activity,SK-HEP1 [6],Dose-Dependent Effect
same,Activity,Huh-7 [7],Dose-Dependent Effect
same,Activity,Huh-7 [8],Dose-Dependent Effect
same,Activity,SK-HEP1 [9],Dose-Dependent Effect
same,Activity,SK-HEP1 [10],Dose-Dependent Effect
same,inhibition,SK-HEP1 [11],Active
same,Activity,SK-HEP1 [12],Active
same,Activity,Huh-7 [13],Active
same,Activity,Huh-7 [14],Active
same,Activity,Huh-7 [15],Active
same,Activity,Huh-7 [16],Active
same,Activity,SK-HEP1 [17],Active
same,Activity,SK-HEP1 [18],Active
same,Activity,SK-HEP1 [19],Dose-Dependent Effect
same,Activity,SK-HEP1 [20],Active
same,Activity,Huh-7 [21],Dose-Dependent Effect
same,Activity,Huh-7 [22],Dose-Dependent Effect
same,Activity,Huh-7 [23],Active
same,Activity,Huh-7 [24],Active
same,Activity,SK-HEP1 [25],Dose-Dependent Effect
same,Activity,SK-HEP1 [26],Dose-Dependent Effect
same,Activity,SK-HEP1 [27],Active
same,inhibition,Huh-7 [28],Active
same,Activity,[29],Active
same,inhibition in vivo at 15 mg/kg,Huh-7 [30],27.4%
same,Activity,Huh-7 [31],Active
same,Activity,Huh-7 [32],Tde
same,Activity,Huh-7 [33],Tde
same,Activity,Huh-7 [34],Dose-Dependent Effect
same,Activity,[35],Non-Toxic
same,Activity,[36],Non-Toxic
